According to patent US7501443B2, “Flavaxate derivatives as muscarinic receptor antagonists” (Ranbaxy Laboratories Limited, priority 2002, dated 2009):
pKi: −log10 of the molar value.

Assays:
[1] = target: T1, M3 muscarinic receptor (Rattus norvegicus, UniProt P08483); experiment: Radioligand binding assay, [3H]-N-methylscopolamine, rat submandibular gland membranes; settings: [3H]-NMS binding, Ki by Cheng & Prusoff; for pKi: read-out: M3 pki
T1 construct: Submandibular glands and heart were isolated and placed in ice cold homogenising buffer; from tissue; host or cells: rat submandibular gland membrane homogenate
T1 sequence (P08483 whole entry): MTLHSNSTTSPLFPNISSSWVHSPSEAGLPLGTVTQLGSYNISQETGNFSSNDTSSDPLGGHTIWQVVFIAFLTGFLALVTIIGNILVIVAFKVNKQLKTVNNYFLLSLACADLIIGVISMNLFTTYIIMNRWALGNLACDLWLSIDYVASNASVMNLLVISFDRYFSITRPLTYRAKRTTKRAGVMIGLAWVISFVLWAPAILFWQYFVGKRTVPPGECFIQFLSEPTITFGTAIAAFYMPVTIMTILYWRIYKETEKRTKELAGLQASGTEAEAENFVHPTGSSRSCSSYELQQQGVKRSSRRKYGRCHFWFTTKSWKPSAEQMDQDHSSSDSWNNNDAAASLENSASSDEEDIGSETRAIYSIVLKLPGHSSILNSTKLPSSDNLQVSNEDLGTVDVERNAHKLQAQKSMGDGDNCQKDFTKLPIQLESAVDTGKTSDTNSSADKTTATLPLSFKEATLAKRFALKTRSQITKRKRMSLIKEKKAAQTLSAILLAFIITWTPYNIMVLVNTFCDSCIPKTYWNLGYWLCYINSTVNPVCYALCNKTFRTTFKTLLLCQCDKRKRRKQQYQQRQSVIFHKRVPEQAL
Protocol: (§1) Radioligand Binding Assays: • The affinity of test compounds for M2 and M3 muscarinic receptor subtypes was determined by [^3H]-N-methylscopolamine binding studies using rat heart and submandibular gland respectively as described by Moriya et al., (Life Sci, 1999, 64(25):2351-2358) with minor modifications. Membrane preparation: Submandibular glands and heart were isolated and placed in ice cold homogenising buffer (HEPES 20 mM, 10 mM EDTA, pH 7.4) immediately after sacrifice. The tissues were homogenised in 10 volumes of homogenising buffer and the homogenate was filtered through two layers of wet gauze and filtrate was centrifuged at 500 g for 10 min. The supernatant was subsequently centrifuged at 40,000 g for 20 min. The pellet thus obtained was resuspended in same volume of assay buffer (HEPES 20 mM, EDTA 5 mM, pH 7.4) and were stored at −70° C. until the time of assay. Ligand binding assay: The compounds were dissolved and diluted in DMSO. The membrane homogenates (150-250 μg protein) were incubated in 250 μl of assay buffer (HEPES 20 mM, pH 7.4) at 24-25° C. for 3 h. Non-specific binding was determined in the presence of 1 μM atropine. The incubation was terminated by vacuum filtration over GF/B fiber filters(Wallac). The filters were then washed with ice cold 50 mM Tris HCl buffer (pH 7.4). The filter mats were dried and bound radioactivity retained on filters was counted. The IC50 & Kd were estimated by using the non-linear curve fitting program using G Pad Prism software. The value of inhibition constant Ki was calculated from competitive binding studies by using Cheng & Prusoff equation (Biochem Pharmacol, 1973, 22: 3099-3108), Ki=IC50/(1+L/Kd), where L is the concentration of [^3H]NMS used in the particular experiment. pki is—[log Ki].

[2] = target: T2, M2 muscarinic receptor (Rattus norvegicus, UniProt P10980); experiment: Radioligand binding assay, [3H]-N-methylscopolamine, rat heart membranes; settings: [3H]-NMS binding, Ki by Cheng & Prusoff; for pKi: read-out: M2 pki
T2 construct: Submandibular glands and heart were isolated and placed in ice cold homogenising buffer; from tissue; host or cells: rat heart membrane homogenate
T2 sequence (P10980 1-466): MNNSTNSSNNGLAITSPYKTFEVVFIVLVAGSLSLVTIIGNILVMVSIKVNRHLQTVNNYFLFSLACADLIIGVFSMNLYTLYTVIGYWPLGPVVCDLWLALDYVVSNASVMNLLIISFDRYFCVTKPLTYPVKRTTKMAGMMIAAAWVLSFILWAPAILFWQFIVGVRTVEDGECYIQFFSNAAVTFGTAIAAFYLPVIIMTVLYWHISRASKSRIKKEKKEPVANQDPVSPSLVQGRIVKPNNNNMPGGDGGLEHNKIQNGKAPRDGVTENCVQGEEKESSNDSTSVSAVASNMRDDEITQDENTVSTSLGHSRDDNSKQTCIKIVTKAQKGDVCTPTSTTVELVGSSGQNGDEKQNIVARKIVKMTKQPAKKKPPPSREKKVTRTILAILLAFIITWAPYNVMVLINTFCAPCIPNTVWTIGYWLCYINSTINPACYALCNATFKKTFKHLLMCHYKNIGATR
Protocol: as §1

M3 pki [1]	M2 pki [2]	pKi [1]	pKi [2]	melting point [°C]	Compound
5.1	<5.3				Cc1c(-c2ccccc2)oc2c(C(=O)NCC3C4CN(Cc5ccccc5)CC34)cccc2c1=O (stereo not drawn) [Compound No. 3, (1α,5α,6α)-N-[3-benzyl-3-azabicyclo[3.1.0]hexyl-6-(aminomethyl)-yl]-3-methyl-4-oxo-2-phenyl-4H-1-benzopyran-8-carboxamide]
		< 6.00	< 6.00		Cc1c(-c2ccccc2)oc2c(C(=O)NCC34CC3CN(Cc3ccccc3)C4)cccc2c1=O (centres unmarked) [Compound No. 5, N-[3-benzyl-3-azabicyclo[3.1.0]hexyl-1-(aminomethyl)-yl]-3-methyl-4-oxo-2-phenyl-4H-1-benzopyran-8-carboxamide]
		< 5.00	< 5.00	182 to 184	Cc1c(-c2ccccc2)oc2c(C(=O)N[C@H]3[C@@H]4CN(Cc5ccccc5)C[C@@H]43)cccc2c1=O [Compound No. 1, (1α,5α,6α)-6N-[3-benzyl-3-azabicyclo[3.1.0]hexyl]-3methyl-4-oxo-2-phenyl-4H-1-benzopyran-8-carboxamide]
<6	<6				(1α,5α,6α)-N-[3-[4-methyl-3-pentenyl]-3-azabicylo[3.1.0]hexyl-6-(aminomethyl)-3-methyl-4-oxo-2-phenyl-4H-1-benzo-pyran-8-carboxamide [Compound No. 4]
		< 5.00	< 5.00		Cc1c(-c2ccccc2)oc2c(C(=O)N[C@H]3[C@@H]4CN(Cc5ccc(C#N)cc5)C[C@@H]43)cccc2c1=O [Compound No. 2, (1α,5α,6α)-6N-[3-(4-cyanobenzyl)-3-azabicyclo[3.1.0]hexyl]-3-methyl-4-oxo-2-phenyl-4H-1-benzopyran-8-carboxamide]
